Legend:
[1] = tested on: SNL model rats; test: Analgesic effect in a fifth lumbar nerve ligation (SNL) model, von Frey test; assay type: in vivo, Wistar rats; settings: for extension range of reaction thresholds ± standard error (50% paw withdrawal threshold, after minus before administration): about 10 mg formulation on footpad for 1 hour, evaluated another 1 hour after removal, n=9; for extension range of reaction thresholds compared with the vehicle group: about 10 mg formulation on footpad, versus vehicle (Control example 1)
Description: Test 2. […] A SNL model was prepared by a method of Kim and Chung (Pain 50, 355-363, 1992) with partial modification thereof. Specifically, male 5-week-old Wistar rats were anesthetized with pentobarbital and isoflurane inhalation, and under anesthesia, an unilateral fifth lumber nerve was exposed. Then, the fifth lumber nerve was ligated with a silk surgical suture to obtain a SNL model. Evaluation of the analgesic effect was conducted with the von Frey test. Specifically, an animal was poked with a von Frey hair on a footpad in a hind limb of an animal at the side of operation. Reaction thresholds (50% paw withdrawal thresholds) to mechanical stimulation were calculated with a formula according to a method of Chaplan (Journal of Neuroscience Methods 53, 55-63, 1994). […] Reaction thresholds were measured on one and two days before the evaluation of test compounds, and an average of the measured values was determined as the reaction threshold before administration of test compounds. […] One day after the division into groups, test compounds were administered. […] Administration of a test compound was carried out by application of about 10 mg of each formulation on a medical adhesive film, and attachment of the film to a footpad of a SNL rat at the side of operation under anesthesia with isoflurane inhalation. One hour after the application, the film was removed, and another one hour after, reaction thresholds after administration of the test compound were evaluated. After the evaluation, blood was immediately collected from a cervical vein, and the concentration of the test compound in plasma was measured. The efficacy of the analgesic effect of a test compound is shown as an extension range of reaction thresholds±standard error (g) by the following formula: (Reaction threshold after administration of a test compound)−(Reaction threshold before administration of a test compound).

[2] = Concentration of the test compound in plasma after evaluation in SNL rats; assay type: in vivo; settings: Wistar, rat, topical about 10 mg formulation, blood collected immediately after evaluation (2 hours after application)
Description: One day after the division into groups, test compounds were administered. […] Administration of a test compound was carried out by application of about 10 mg of each formulation on a medical adhesive film, and attachment of the film to a footpad of a SNL rat at the side of operation under anesthesia with isoflurane inhalation. One hour after the application, the film was removed, and another one hour after, reaction thresholds after administration of the test compound were evaluated. After the evaluation, blood was immediately collected from a cervical vein, and the concentration of the test compound in plasma was measured.

[3] = tested on: ECG (electrocardiogram) parameters of guinea pigs; test: Safety pharmacology study of the cardiovascular system: ECG parameters under anesthesia; assay type: in vivo; settings: for effect on the cardiovascular system / ECG parameters: guinea pigs under anesthesia, continuous intravenous administration
Description: Test 3. […] Evaluation of ECG of guinea pigs was conducted under anesthesia with intra-abdominal administration of a mixed solution of urethane and α-chloralose. Guinea pigs under anesthesia were retained in a supine position, and a right cervical vein was exposed to […] cannula. […] QRS interval and QTc interval are shown as rates of change (%) by similar equations.

[4] = Concentration in plasma during continuous intravenous administration in guinea pigs; assay type: in vivo; settings: dose of 30 mg/kg continuous intravenous for 30 minutes
Description: Evaluation of ECG of guinea pigs was conducted under anesthesia with intra-abdominal administration of a mixed solution of urethane and α-chloralose. Guinea pigs under anesthesia were retained in a supine position, and a right cervical vein was exposed to […] cannula. […] QRS interval and QTc interval are shown as rates of change (%) by similar equations.

[5] = 30 mg/kg continuous intravenous for 30 minutes, at 30 minutes after administration
[6] = 15 mg/kg continuous intravenous for 30 minutes, at 30 minutes after administration

| Compound | difference between extension ranges of reaction thresholds of Compound A and lidocaine groups ([1]; Example 1 ointment versus 5% lidocaine ointment) | extension range of reaction thresholds ± standard error (50% paw withdrawal threshold, after minus before administration) [1] | extension range of reaction thresholds compared with the vehicle group [1] | concentration at 2 h [2] | rates of change of each ECG parameter compared with the vehicle group ([3]; 30 mg/kg continuous intravenous for 30 minutes) | PR interval rate of change (prolonged) [3, 5] | QRS interval rate of change (prolonged) [3, 5] | QTc interval rate of change (prolonged) [3, 5] | plasma concentration without effect on the cardiovascular system relative to that at which the analgesic effect appeared ([3]; guinea pig maximum plasma concentration at 30 mg/kg versus SNL rat plasma concentration) | effect on the cardiovascular system / ECG parameters [3] | maximum concentration in plasma [4] | PR interval rate of change (prolonged) [3, 6] | QRS interval rate of change (prolonged) [3, 6] |
| --- | --- | --- | --- | --- | --- | --- | --- | --- | --- | --- | --- | --- | --- |
| CCn1c(CN[C@@H](C)C(N)=O)nc2ccc(Oc3ccc(C)cc3)cc21 [Compound A, N^2-{[1-ethyl-6-(4-methylphenoxy)-1H-benzimidazol-2-yl]methyl}-L-alaninamide] | no statistically significant difference | 2.2 ± 0.56 g | statistically significantly increased | 25.2 ng/mL | no statistically significant difference | 22.3% | 10.3% | 9.0% | about 670 times | not observed until the dose rose to 30 mg/kg | 16.9 µg/mL |  |  |
| CCN(CC)CC(=O)Nc1c(C)cccc1C [lidocaine, reference compound] |  | 4.1 ± 0.62 g | statistically significantly increased |  |  |  |  |  |  | observed at a dose of 15 mg/kg |  | 35.1% | 44.5% |

— patent publication US11925621B2, “Medicinal preparation for external use” (Sumitomo Pharma Co., Ltd., priority 2018, dated 2024)
